14 compounds from US6586592B2, “Bis-arylsulfones” (Pharmacia & Upjohn Company, priority 2000, dated 2003) can be followed below.

Structures can show the parent of a compound that is named as a salt.

Usually Ki stands for the dissociation constant of the complex between target and ligand, obtained from inhibition or displacement. A lower Ki goes with tighter binding. Broadly, the melting point is the temperature of the solid-liquid transition.

The target in series [1] is T1, cloned human 5-HT6 receptor (Homo sapiens, UniProt P50406).
T1 construct: membrane preparation
T1 sequence (P50406 whole entry): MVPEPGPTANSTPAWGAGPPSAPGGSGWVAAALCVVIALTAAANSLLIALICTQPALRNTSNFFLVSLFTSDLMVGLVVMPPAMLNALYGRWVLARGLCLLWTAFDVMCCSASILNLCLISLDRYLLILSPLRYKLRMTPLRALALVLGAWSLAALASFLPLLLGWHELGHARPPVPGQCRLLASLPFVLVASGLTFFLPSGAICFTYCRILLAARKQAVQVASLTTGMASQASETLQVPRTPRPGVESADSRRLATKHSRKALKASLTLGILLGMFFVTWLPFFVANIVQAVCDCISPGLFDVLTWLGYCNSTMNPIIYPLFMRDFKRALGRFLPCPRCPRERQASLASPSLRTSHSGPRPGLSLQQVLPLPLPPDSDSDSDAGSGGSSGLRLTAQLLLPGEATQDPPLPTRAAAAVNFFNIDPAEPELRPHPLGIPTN
In words: 5-HT6 receptor binding assay ([3H]-LSD radioligand, SPA beads). To be noted: membranes of Hela cells containing cloned human 5-HT6 receptor, IC50 converted to Ki by Cheng-Prusoff. As to the method: 5-HT6 Receport Binding Assay
Growth of Cells and Membrane Preparation
Harvested intact cells are washed once in cold phosphate-buffered saline. The cells are pelleted and resuspended in 100 ml of cold 50 mM Tris, 5 mM EDTA and 5 mM EGTA, pH 7.4. Homogenization is with a Vir Tishear generator, 4 cycles for 30 seconds each at setting 50. The homogenized cells are centrifuged at 700 RPM (1000×g) for 10 minutes and the supernatant is removed. […] The rehomogenized cells are then centrifuged at 700 RPM (1000×g) for 10 minutes and the supernatant is removed. […] The membrane pellet is resupended in 50-8-ml of assay buffer containing HEPES 20 mM, MgCl2 10 mM, NaCl 150 mM, EDTA 1 mM, pH 7.4 and stored frozen in aliqouts at −70° C.
5-HT6 Receptor Binding Assay
The radioligand binding assay used [^3H]-lysergic acid diethylamide (LSD). The assay is carried out in Wallac 96-well sample plates by the addition of 11 μl of the test sample at the appropriate dilution (the assay employed 11 serial concentrations of samples run in duplicate), 11 μl of radioligand, and 178 μl of a washed mixture of WGA-coated SPA beads and membranes in binding buffer. The plates are shaken for about 5 minutes and then incubated at room temperature for 1 hour. The plates are then loaded into counting cassettes and counted in a Wallac MicroBeta Trilux scintillation counter.
Binding Constant (Ki) Determination
Eleven serial dilutions of test compounds are distributed to assay plates using the PE/Cetus Pro/Pette pipetter. These dilutions were, followed by radioligand and the bead-membrane mixture prepared as described above. The specifically bound cpm obtained are fit to a one-site binding model using GraphPad Prism ver. 2.0.

In series [1], `Nc1cc(N2CCNCC2)ccc1S(=O)(=O)c1ccccc1` [Example 1, 2-(phenylsulfonyl)-5-(1-piperazinyl)phenylamine] showed an inhibition constant Ki of 2.6 nM.
The same measure, in the same setting: as for `Nc1cc(N2CCCNCC2)ccc1S(=O)(=O)c1cc(F)cc(F)c1` [Example 11, 5-(1,4-diazepan-1-yl)-2-[(3,5-difluorophenyl)sulfonyl]phenylamine], the figure is 11 nM.
`CN1CCN(c2ccc(S(=O)(=O)c3cccc(F)c3)c(N)c2)CC1.Cl` [Example 8, 2-[(3-fluorophenyl)sulfonyl]-5-(4-methyl-1-piperazinyl) Phenylamine] came in with a melting point of 89 to 92 °C. In series [1], this compound registered an inhibitory constant (Ki) of 5.2 nM.
`Nc1cc(N2CCNCC2)ccc1S(=O)(=O)c1ccccc1` (as salt: salt) [Example 1, 2-(phenylsulfonyl)-5-(1-piperazinyl)phenylamine] came in with a melting point of 165 to 166 °C.
As to `Nc1cc(N2CCCNCC2)ccc1S(=O)(=O)c1ccccc1` [Example 10, 5-(1,4-diazepan-1-yl)-2-(phenylsulfonyl) Phenylamine], the Ki in series [1] was determined as 11 nM.
The compound `CCNc1cc(N2CCNCC2)ccc1S(=O)(=O)c1ccccc1.Cl` [Example 13, N-ethyl-2-(phenylsulfonyl)-5-(1-piperazinyl) Phenylamine] displayed a melting point of 121 to 123 °C.
For `CNc1cc(N2CCCNCC2)ccc1S(=O)(=O)c1cccc(F)c1.Cl`, the melting point is 153 to 154 °C.
`Cc1ccc(S(=O)(=O)c2ccc(N3CCN(C)CC3)cc2N)cc1` [Example 6, 2-[(4-methylphenyl)sulfonyl]-5-(4-methyl-1-piperazinyl) Phenylamine] yielded a melting point of 148 to 151 °C. The compound further had an inhibitory constant (Ki) in series [1] of 68 nM.
On to `CN1CCN(c2ccc(S(=O)(=O)c3ccccc3)c(N)c2)CC1.Cl` [Example 7, 5-(4-methyl-1-piperazinyl)-2-(phenylsulfonyl) Phenylamine], for which the melting point fell in the range of 90 to 93 °C. For the same compound, the affinity in series [1], expressed as Ki, was 3.6 nM.
The compound `CN1CCN(c2ccc(S(=O)(=O)c3ccc(F)cc3)c(N)c2)CC1.Cl` [Example 4, 2-[(4-fluorophenyl)sulfonyl]-5-(4-methyl-1-piperazinyl) Phenylamine] came in with a melting point of 85 to 89 °C. Further, in series [1], the inhibitory constant (Ki) turned out to be 32 nM.
For the compound `Cl.Nc1cc(N2CCCNCC2)ccc1S(=O)(=O)c1cccc(F)c1` [Example 2, 5-(1,4-diazepan-1-yl)-2-[(3-fluorophenyl)sulfonyl]phenylamine], the melting point fell in the range of 106 to 108 °C.
As to `Cc1ccc(S(=O)(=O)c2ccc(N3CCNCC3)cc2N)cc1` [Example 5, 2-[(4-methylphenyl)sulfonyl]-5-(1-piperazinyl) Phenylamine], the melting point lay within 102 to 106 °C. In series [1], this compound came in with a Ki of 23 nM.
For `Nc1cc(N2CCCNCC2)ccc1S(=O)(=O)c1ccc(F)c(F)c1` [Example 9, 5-(1,4-diazepan-1-yl)-2-[(3,4-difluorophenyl)sulfonyl]phenylamine], in series [1], the affinity, expressed as Ki, was 79 nM.
The same measure, in the same setting: as for `Nc1cc(N2CCNCC2)ccc1S(=O)(=O)c1ccc(F)cc1` [Example 3, 2-[(4-fluorophenyl)sulfonyl]-5-(1-piperazinyl) Phenylamine], the figure is 31 nM.
